Article PMC11455950, “Effects of SZV-2649, a new multiple ion channel inhibitor mexiletine analogue” (Scientific Reports, 2024)

Target: T1, GIRK1 (Kir3.1/3.4) potassium channel (Homo sapiens, UniProt P48544+P48549)
T1 construct: host or cells: HEK293
T1 sequence (P48549 1-501): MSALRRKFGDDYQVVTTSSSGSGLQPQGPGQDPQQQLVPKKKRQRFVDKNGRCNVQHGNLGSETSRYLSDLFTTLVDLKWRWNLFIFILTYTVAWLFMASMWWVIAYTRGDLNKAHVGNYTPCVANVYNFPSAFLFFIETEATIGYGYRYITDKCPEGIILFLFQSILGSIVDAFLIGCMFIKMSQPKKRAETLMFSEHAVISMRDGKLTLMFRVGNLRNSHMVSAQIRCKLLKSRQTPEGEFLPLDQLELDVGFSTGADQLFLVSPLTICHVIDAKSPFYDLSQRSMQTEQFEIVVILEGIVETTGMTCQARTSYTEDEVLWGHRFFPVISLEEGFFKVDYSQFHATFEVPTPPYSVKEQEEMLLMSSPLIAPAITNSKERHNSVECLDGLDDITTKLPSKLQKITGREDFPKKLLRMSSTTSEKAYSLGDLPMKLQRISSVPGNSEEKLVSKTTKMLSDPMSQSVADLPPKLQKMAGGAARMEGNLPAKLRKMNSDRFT
T1 sequence (P48544 1-419): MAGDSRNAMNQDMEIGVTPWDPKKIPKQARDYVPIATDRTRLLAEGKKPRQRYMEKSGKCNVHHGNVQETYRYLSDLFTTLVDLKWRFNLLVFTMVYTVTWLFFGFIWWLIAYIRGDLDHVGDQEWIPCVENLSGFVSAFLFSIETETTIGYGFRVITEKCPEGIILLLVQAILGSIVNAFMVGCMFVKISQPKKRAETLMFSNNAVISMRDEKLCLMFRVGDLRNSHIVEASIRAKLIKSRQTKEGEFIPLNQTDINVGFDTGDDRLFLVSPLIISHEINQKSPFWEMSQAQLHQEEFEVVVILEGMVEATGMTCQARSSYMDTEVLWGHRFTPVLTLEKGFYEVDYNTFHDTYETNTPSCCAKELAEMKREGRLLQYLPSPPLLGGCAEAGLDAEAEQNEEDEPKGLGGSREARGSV
Test: Automated planar patch-clamp, GIRK current in HEK cells
Type: cell-based
Conditions: HEK cells (abstract)
Description: Inhibition of the hERG channel, the pore forming α-subunit of the native IKr cardiac potassium channel, is expected to prolong repolarization both in the atria and in the ventricles. The GIRK channel is the pore forming α-subunit of the acetylcholine-activated potassium channel and plays an important role in atrial electrophysiology. Its inhibition can be expected to decrease the acetylcholine-activated potassium current (IKACh), a current that plays an important role in the pathogenesis of AF. Therefore, the effects of SZV-2649 on the hERG and GIRK ion channels were studied by the planar patch-clamp technique in mammalian HEK cell lines stably expressing these channels.
The currents conducted by the hERG and GIRK channels were measured by using planar patch-clamp technology[,[47],[68] in the whole-cell configuration with a four-channel medium-throughput fully automated patch-clamp platform (Patchliner Quattro, Nanion Technologies GmbH, Munich, Germany) with integrated temperature control. […]
For GIRK current measurements (see Fig. 2.), the internal solution was (in mM): K-gluconate 40, NaCl 20, KF 60, EGTA 20 and HEPES 10 (pH 7.2, KOH) supplemented with 0.9 mM GTP before experiments to induce channel activation. […] The invard currents were calculated from the − 140 mV segment. […]

SMILES: CC(N)COc1c(I)cc(C#N)cc1I.Cl (stereo not shown) [SZV-2649, 4-(2-aminopropoxy)-3,5-diiodobenzonitrile hydrochloride]
- IC50: 529 nM
